Article PMC8230315, “A Pan-Inhibitor for Protein Arginine Methyltransferase Family Enzymes” (Biomolecules, 2021)
Like-named read-outs stand apart in the source and are kept apart here.

Columns and labels:
PRMT1 [1] = target: T1, PRMT1 (Homo sapiens, UniProt Q99873); assay: SAHH-coupled fluorescence assay, PRMT1 inhibition; format: biochemical; conditions: for IC50: PRMT1 0.1 µM, n = 2, mean ± SD; for Ki: calculated as Ki, app = IC50/(1 + [S]/Km), read-out: Ki, app
Procedure: A fluorescence-based SAHH-coupled assay was used to evaluate the IC50 values of inhibitors by monitoring the production of SAH from SAM after methylation. […] The fluorescence signal was monitored on a BMG CLARIOstar microplate reader with excitation at 400 nm and emission at 465 nm for 18 min. Data were processed using GraphPad Prism software 7.0. All experiments were performed in duplicate.
The fluorescence signal was monitored on a BMG CLARIOstar microplate reader with excitation at 400 nm and emission at 465 nm for 18 min. Data were processed using GraphPad Prism software 7.0. All experiments were performed in duplicate. […].

TbPRMT7 = target: T2, TbPRMT7 (Trypanosoma brucei brucei, UniProt Q582G4); assay: Selectivity SAHH-coupled fluorescence assay, TbPRMT7; format: biochemical; conditions: at 11.1 μM
T2 construct: made in house
Excerpt: (§1) We chose the top four potent compounds (6b and 6l–n) to investigate their selectivities against several in-house methyltransferases including protein arginine methyltransferase TbPRMT7, two members of the protein lysine methyltransferase PKMT (G9a and SETD7), protein N-terminal methyltransferase 1 (NTMT1), and a small molecule methyltransferase nicotinamide N-methyltransferase (NNMT), all of which have a SAM binding site.
A fluorescence-based SAHH-coupled assay was applied to study the effect of the compound on methyltransferase activity of PRMT7, NTMT1, SETD7, G9a, NNMT, and SAHH. For PRMT7, the assay was performed in a final well volume of 100 μL: 25 mM Tris (pH = 7.5), 50 mM KCl, 0.01% Triton X-100, 5 μM SAHH, 0.2 μM PRMT7, 3 μM AdoMet, and 15 μM ThioGlo1. After incubation for 10 min with the inhibitor, reactions were initiated by the addition of 60 μM H4-21 peptide, and the reaction was monitored for 15 min. […] After incubation for 10 min with the inhibitor, reactions were initiated by the addition of 0.5 μM GPKRIA peptide, and the reaction was monitored for 15 min. […] After incubation for 10 min with the inhibitor, reactions were initiated by the addition of 90 μM H3-21 peptide, and the reaction was monitored for 15 min. […] After incubation for 10 min with the inhibitor, reactions were initiated by the addition of 10 μM nicotinamide, and the reaction was monitored for 18 min. […]

SETD7 = target: T3, SETD7 (Homo sapiens, UniProt Q8WTS6); assay: Selectivity SAHH-coupled fluorescence assay, SETD7; format: biochemical; conditions: at 100 μM
T3 construct: made in house
T3 sequence (Q8WTS6 1-366): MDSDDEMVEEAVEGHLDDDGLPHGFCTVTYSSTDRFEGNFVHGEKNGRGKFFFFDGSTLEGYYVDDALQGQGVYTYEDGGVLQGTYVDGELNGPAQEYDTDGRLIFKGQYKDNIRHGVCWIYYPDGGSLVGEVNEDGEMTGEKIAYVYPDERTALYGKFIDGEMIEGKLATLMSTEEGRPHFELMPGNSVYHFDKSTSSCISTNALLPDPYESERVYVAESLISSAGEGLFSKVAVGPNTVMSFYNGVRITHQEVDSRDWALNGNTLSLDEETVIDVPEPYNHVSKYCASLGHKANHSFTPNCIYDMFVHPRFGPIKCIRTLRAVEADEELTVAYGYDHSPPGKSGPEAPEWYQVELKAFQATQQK
Excerpt: as §1
A fluorescence-based SAHH-coupled assay was applied to study the effect of the compound on methyltransferase activity of PRMT7, NTMT1, SETD7, G9a, NNMT, and SAHH. For PRMT7, the assay was performed in a final well volume of 100 μL: 25 mM Tris (pH = 7.5), 50 mM KCl, 0.01% Triton X-100, 5 μM SAHH, 0.2 μM PRMT7, 3 μM AdoMet, and 15 μM ThioGlo1. After incubation for 10 min with the inhibitor, reactions were initiated by the addition of 60 μM H4-21 peptide, and the reaction was monitored for 15 min. For NTMT1, the assay was performed in a final well volume of 100 μL: 25 mM Tris (pH = 7.5), 50 mM KCl, 0.01% Triton X-100, 5 μM SAHH, 0.1 μM NTMT1, 3 μM AdoMet, and 10 μM ThioGlo4. After incubation for 10 min with the inhibitor, reactions were initiated by the addition of 0.5 μM GPKRIA peptide, and the reaction was monitored for 15 min. For SETD7, the assay was performed in a final well volume of 100 μL: 25 mM potassium phosphate buffer (pH = 7.6), 0.01% Triton X-100, 5 μM SAHH, 1 μM SETD7, 2 μM AdoMet, and 10 μM ThioGlo1. After incubation for 10 min with the inhibitor, reactions were initiated by the addition of 90 μM H3-21 peptide, and the reaction was monitored for 15 min. For G9a, the assay was performed in a final well volume of 100 μL: 25 mM potassium phosphate buffer (pH = 7.6), 1 mM EDTA, 2 mM MgCl2, 0.01% Triton X-100, 5 μM SAHH, 0.1 μM His-G9a, 10 μM AdoMet, and 10 μM ThioGlo4. For NNMT, the assay was performed in a final well volume of 100 μL: 25 mM Tris (pH = 7.5), 50 mM KCl, 0.01% Triton X- 100, 5 μM SAHH, 0.1 μM NNMT, 10 μM AdoMet, and 10 μM ThioGlo1. After incubation for 10 min with the inhibitor, reactions were initiated by the addition of 10 μM nicotinamide, and the reaction was monitored for 18 min. The inhibitors were added at five concentrations: 100, 33.3, 11.1, 3.7, and 1.2 μM.

PRMT1 [2] = target: T1, PRMT1; conditions: cited from earlier work
PRMT5/MEP50 = tested on: PRMT5/MEP50; set-up: method as in doi:10.1158/1538-7445.AM2018-4859; conditions: cited from earlier work
PRMT4 = target: T4, PRMT4 (Homo sapiens, UniProt Q86X55); conditions: cited from earlier work
T4 construct: purchased Reaction Biology
T4 sequence (Q86X55 1-608): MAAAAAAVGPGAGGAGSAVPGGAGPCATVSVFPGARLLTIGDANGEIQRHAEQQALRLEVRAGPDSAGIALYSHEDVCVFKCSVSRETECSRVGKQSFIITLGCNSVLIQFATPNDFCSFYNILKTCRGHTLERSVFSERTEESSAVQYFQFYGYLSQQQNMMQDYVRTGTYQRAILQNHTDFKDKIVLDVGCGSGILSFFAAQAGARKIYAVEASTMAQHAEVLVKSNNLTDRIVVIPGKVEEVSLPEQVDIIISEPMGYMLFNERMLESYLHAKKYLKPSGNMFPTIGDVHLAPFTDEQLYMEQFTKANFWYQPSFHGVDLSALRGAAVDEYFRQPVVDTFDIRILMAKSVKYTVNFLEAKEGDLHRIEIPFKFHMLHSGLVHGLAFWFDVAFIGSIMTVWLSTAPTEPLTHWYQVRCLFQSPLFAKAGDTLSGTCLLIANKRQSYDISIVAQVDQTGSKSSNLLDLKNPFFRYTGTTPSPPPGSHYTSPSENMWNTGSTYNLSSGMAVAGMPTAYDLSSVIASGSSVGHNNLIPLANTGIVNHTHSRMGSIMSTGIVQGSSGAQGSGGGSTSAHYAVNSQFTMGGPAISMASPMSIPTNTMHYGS

[3] = at Km of SAM (10 µM) and H4-21 peptide (5 µM)
[4] = substrate concentration at 4 Km (footnote a)

T1 sequence (Q99873 whole entry, species assumed): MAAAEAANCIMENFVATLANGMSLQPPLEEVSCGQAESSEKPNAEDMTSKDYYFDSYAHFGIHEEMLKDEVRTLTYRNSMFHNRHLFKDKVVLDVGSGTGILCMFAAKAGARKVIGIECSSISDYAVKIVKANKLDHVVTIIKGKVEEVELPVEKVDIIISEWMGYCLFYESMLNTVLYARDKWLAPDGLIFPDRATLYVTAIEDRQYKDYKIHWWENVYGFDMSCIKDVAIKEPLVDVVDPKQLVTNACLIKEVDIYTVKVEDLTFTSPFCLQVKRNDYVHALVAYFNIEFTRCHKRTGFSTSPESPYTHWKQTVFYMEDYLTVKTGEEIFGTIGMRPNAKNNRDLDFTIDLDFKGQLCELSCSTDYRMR
T2 sequence (Q582G4 whole entry): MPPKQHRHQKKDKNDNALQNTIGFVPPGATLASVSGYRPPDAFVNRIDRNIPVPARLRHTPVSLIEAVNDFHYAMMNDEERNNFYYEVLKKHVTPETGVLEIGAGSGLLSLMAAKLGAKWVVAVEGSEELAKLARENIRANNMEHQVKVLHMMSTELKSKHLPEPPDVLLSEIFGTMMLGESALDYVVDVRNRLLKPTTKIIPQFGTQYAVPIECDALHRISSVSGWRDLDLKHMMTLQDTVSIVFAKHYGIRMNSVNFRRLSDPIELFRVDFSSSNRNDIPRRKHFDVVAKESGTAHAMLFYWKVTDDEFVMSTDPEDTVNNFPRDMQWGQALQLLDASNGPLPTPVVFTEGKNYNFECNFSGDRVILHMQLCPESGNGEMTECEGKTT

CCNC(=N)NCCCSC[C@H]1O[C@@H](n2cnc3c(N)ncnc32)[C@H](O)[C@@H]1O [Compound 6a, 1-(3-((((2S,3S,4R,5R)-5-(6-amino-9H-purin-9-yl)-3,4-dihydroxytetrahydrofuran-2-yl)methyl)thio)propyl)-3-ethylguanidine]
IC50 (PRMT1 [1]; [3]): 620 ± 80 nM
Ki (PRMT1 [1]): 310 ± 40 nM

N=C(NCCCSC[C@H]1O[C@@H](n2cnc3c(N)ncnc32)[C@H](O)[C@@H]1O)NC1CCC1 [Compound 6b, 1-(3-((((2S,3S,4R,5R)-5-(6-amino-9H-purin-9-yl)-3,4-dihydroxytetrahydrofuran-2-yl)methyl)thio)propyl)-3-cyclobutylguanidine]
IC50 (PRMT1 [1]; [4]): 230 ± 20 nM
Ki (PRMT1 [1]): 45 ± 5 nM
inhibitory activity against PRMT7 (TbPRMT7): no inhibitory activity
inhibition at 100 µM (SETD7): > 50%

N=C(NCCCSC[C@H]1O[C@@H](n2cnc3c(N)ncnc32)[C@H](O)[C@@H]1O)NC1CCCC1 [Compound 6c, 1-(3-((((2S,3S,4R,5R)-5-(6-amino-9H-purin-9-yl)-3,4-dihydroxytetrahydrofuran-2-yl)methyl)thio)propyl)-3-cyclopentylguanidine]
IC50 (PRMT1 [1]; [3]): 220 ± 16 nM
Ki (PRMT1 [1]): 110 ± 8 nM

N=C(NCCCSC[C@H]1O[C@@H](n2cnc3c(N)ncnc32)[C@H](O)[C@@H]1O)NC1CCCCC1 [Compound 6d, 1-(3-((((2S,3S,4R,5R)-5-(6-amino-9H-purin-9-yl)-3,4-dihydroxytetrahydrofuran-2-yl)methyl)thio)propyl)-3-cyclohexylguanidine]
IC50 (PRMT1 [1]; [3]): 110 ± 48 nM
Ki (PRMT1 [1]): 55 ± 24 nM

N=C(NCCCSC[C@H]1O[C@@H](n2cnc3c(N)ncnc32)[C@H](O)[C@@H]1O)NCC1CCCCC1 [Compound 6e, 1-(3-((((2S,3S,4R,5R)-5-(6-amino-9H-purin-9-yl)-3,4-dihydroxytetrahydrofuran-2-yl)methyl)thio)propyl)-3-(cyclohexylmethyl)guanidine]
IC50 (PRMT1 [1]; [3]): 120 ± 26 nM
Ki (PRMT1 [1]): 60 ± 13 nM

N=C(NCCCSC[C@H]1O[C@@H](n2cnc3c(N)ncnc32)[C@H](O)[C@@H]1O)Nc1ccccc1 [Compound 6f, 1-(3-((((2S,3S,4R,5R)-5-(6-amino-9H-purin-9-yl)-3,4-dihydroxytetrahydrofuran-2-yl)methyl)thio)propyl)-3-phenylguanidine]
IC50 (PRMT1 [1]; [3]): 290 ± 10 nM
Ki (PRMT1 [1]): 150 ± 5 nM
fold reduction of PRMT1 inhibition compared to 6d (PRMT1 [1]; ratio of IC50 values): about 2.5 fold

N=C(NCCCSC[C@H]1O[C@@H](n2cnc3c(N)ncnc32)[C@H](O)[C@@H]1O)NCc1ccccc1 [Compound 6g, 1-(3-((((2S,3S,4R,5R)-5-(6-amino-9H-purin-9-yl)-3,4-dihydroxytetrahydrofuran-2-yl)methyl)thio)propyl)-3-benzylguanidine]
IC50 (PRMT1 [1]; [3]): 720 ± 150 nM
Ki (PRMT1 [1]): 360 ± 75 nM

N=C(NCCCSC[C@H]1O[C@@H](n2cnc3c(N)ncnc32)[C@H](O)[C@@H]1O)NCCc1ccccc1 [Compound 6h, 1-(3-((((2S,3S,4R,5R)-5-(6-amino-9H-purin-9-yl)-3,4-dihydroxytetrahydrofuran-2-yl)methyl)thio)propyl)-3-phenethylguanidine]
IC50 (PRMT1 [1]; [3]): 210 ± 60 nM
Ki (PRMT1 [1]): 110 ± 30 nM

N=C(NCCCSC[C@H]1O[C@@H](n2cnc3c(N)ncnc32)[C@H](O)[C@@H]1O)NCCCc1ccccc1 [Compound 6i, 1-(3-((((2S,3S,4R,5R)-5-(6-amino-9H-purin-9-yl)-3,4-dihydroxytetrahydrofuran-2-yl)methyl)thio)propyl)-3-(3-phenylpropyl)guanidine]
IC50 (PRMT1 [1]; [3]): 330 ± 110 nM
Ki (PRMT1 [1]): 170 ± 55 nM

N=C(NCCCSC[C@H]1O[C@@H](n2cnc3c(N)ncnc32)[C@H](O)[C@@H]1O)Nc1ccccc1[N+](=O)[O-] [Compound 6j, 1-(3-((((2S,3S,4R,5R)-5-(6-amino-9H-purin-9-yl)-3,4-dihydroxytetrahydrofuran-2-yl)methyl)thio)propyl)-3-(2-nitrophenyl)guanidine]
IC50 (PRMT1 [1]; [3]): 210 ± 10 nM
Ki (PRMT1 [1]): 110 ± 5 nM

N=C(NCCCSC[C@H]1O[C@@H](n2cnc3c(N)ncnc32)[C@H](O)[C@@H]1O)Nc1ccc(Br)cc1 [Compound 6m, 1-(3-((((2S,3S,4R,5R)-5-(6-amino-9H-purin-9-yl)-3,4-dihydroxytetrahydrofuran-2-yl)methyl)thio)propyl)-3-(4-bromophenyl)guanidine]
IC50 (PRMT1 [1]; [4]): 290 ± 40 nM
Ki (PRMT1 [1]): 58 ± 7 nM
inhibition at 100 µM (SETD7): > 50%

N=C(NCCCSC[C@H]1O[C@@H](n2cnc3c(N)ncnc32)[C@H](O)[C@@H]1O)NCc1ccc(Br)cc1 [Compound 6n, 1-(3-((((2S,3S,4R,5R)-5-(6-amino-9H-purin-9-yl)-3,4-dihydroxytetrahydrofuran-2-yl)methyl)thio)propyl)-3-(4-bromobenzyl)guanidine]
IC50 (PRMT1 [1]; [4]): 260 ± 70 nM
Ki (PRMT1 [1]): 52 ± 14 nM
inhibition at 100 µM (SETD7): > 50%

N=C(N)NCCCCN(CCC(N)C(=O)O)C[C@H]1O[C@@H](n2cnc3c(N)ncnc32)[C@H](O)[C@@H]1O (some centres unmarked) [JD-16]
IC50 (PRMT1 [2]): 3000 nM

CCCNC(CCC(N)C(=O)O)C[C@H]1O[C@@H](n2cnc3c(N)ncnc32)[C@H](O)[C@@H]1O (some centres unmarked) [Pr-SNF]
IC50 (PRMT4): 9500 nM
